{
  "source": "patent US20210268029A1",
  "about": "“METHODS FOR TREATING CANCER WITH MANUFACTURED T CELLS” (RAPA THERAPEUTICS, LLC, priority 2018, published 2021)",
  "molecules": {"B1": {"name": "daclizumab: anti-IL-2 receptor monoclonal antibody (antibody, chains of the INN, looked up, V domains shown)", "VH": "QVQLVQSGAEVKKPGSSVKVSCKASGYTFTSYRMHWVRQAPGQGLEWIGYINPSTGYTEYNQKFKDKATITADESTNTAYMELSSLRSEDTAVYYCARGGGVFDYWGQGTLVTVSS", "VL": "DIQMTQSPSTLSASVGDRVTITCSASSSISYMHWYQQKPGKAPKLLIYTTSNLASGVPARFSGSGSGTEFTLTISSLQPDDFATYYCHQRSTYPLTFGQGTKVEVK"}},
  "format_in_all_cases": "cell-based",
  "key": {"[1]": {"system": "T cells", "test": "FoxP3 and TBET intra-cellular expression in T cells cultured ex vivo, day 6 (FIGS. 1A-1B)", "method": "T cells were cultured ex vivo, as indicated, using various ratios of anti-CD3, anti-CD28 beads to T cells (1:1 or 1:12); the mTOR inhibitor temsirolimus (1 μM); without or with the anti-IL-2 receptor monoclonal antibody daclizumab (5 or 50 μg/ml); and either Th1 polarization cytokines (IFN-alpha; 10,000 IU/ml) or control regulatory T cell polarization (IL-2 plus TGF-β). At day 6 of culture, the T cells were evaluated for intra-cellular expression of the regulatory T cell transcription factor FoxP3 and the Th1 transcription factor TBET. (FIGS. 1A-1B)."}, "[2]": {"system": "CD4^+ and CD8^+ T cells", "test": "Cytokine secretion potential of cultured T cells by Luminex, day 6 and day 13 (FIGS. 3A-3B)", "method": "To evaluate this, we tested cytokine secretion potential of the manufactured T cells at the end of cell culture (day 6) and then again one week after ex vivo expansion after maximal co-stimulation (3/28 bead-to-T cell ratio, 3:1) and propagation in media devoid of any inhibitors. In FIGS. 3A-3B, CD4^+ and CD8^+ T cells were purified and cultured for 6-days either with or without a 16-hr interval of pre-incubation prior to co-stimulation (1:1 ratio of 3/28 beads-to-T cells). As indicated, temsirolimus was added at concentrations of either 1.0 or 0.1 μM; all cultures were supplemented with IFN-α (10,000 IU/ml) and daclizumab (50 μg/ml). On day 6 of culture, the resultant T cells were co-stimulated for 24 hr using a 3:1 ratio of 3/28 beads; the supernatant was tested for cytokine content by Luminex assay (results are described as pg per ml of cytokine secreted per million cells per 24 hr). […] N.A, abbreviation indicates not applicable (insufficient T cell yield to perform assay)."}, "[3]": {"system": "human CD4^+ and CD8^+ T cells", "test": "Western blot of p62, phospho-RAPTOR and BIM after 16-hr pre-incubation (FIGS. 11-13)", "method": "For FIGS. 11-13, human CD4^+ and CD8^+ T cells were cultured using a 16-hr pre-incubation interval prior to the addition of 3/28 beads at the reduced ratio of 1:3 beads-to-T cells. As indicated in FIGS. 11-13, the various T cell cultures received different methods of mTOR inhibition (rapamycin at 1.0 μM; temsirolimus at 1.0 or 0.1 different conditions of exogenous IL-2 addition, and different conditions relative to addition of the anti-IL-2 receptor monoclonal antibody, daclizumab. After the 16-hr pre-incubation interval, cells were harvested from the T cell cultures, protein was isolated, and p62 (FIG. 11), phospho-RAPTOR (FIG. 12), or BIM (FIG. 13) and the housekeeper gene β-actin were quantified by western blot."}, "[4]": {"settings": "TREG-permissive culture: bead ratio 1:12, no IFN-α, exogenous IL-2 plus TGF-β"}, "[5]": {"settings": "pre-incubation plus high-dose temsirolimus, compared with other conditions"}, "[6]": {"settings": "temsirolimus 1.0 μM, after 24 hr maximal co-stimulation, with or without overnight pre-incubation"}},
  "data": [
    {"molecule": "CO[C@H]1C[C@@H]2CC[C@@H](C)[C@@](O)(O2)C(=O)C(=O)N2CCCC[C@H]2C(=O)O[C@H]([C@H](C)C[C@@H]2CC[C@@H](OC(=O)C(C)(CO)CO)[C@H](OC)C2)CC(=O)[C@H](C)/C=C(\\C)[C@@H](O)[C@@H](OC)C(=O)[C@H](C)C[C@H](C)/C=C/C=C/C=C/1C", "note": "[temsirolimus]", "values": [
      {"measurement": "FoxP3 expression", "setting": "[1]; [4]", "value": "not effective"},
      {"measurement": "expression of TBET", "setting": "[1]; combination of temsirolimus and anti-IL-2 receptor monoclonal antibody", "value": "increased expression"},
      {"measurement": "FoxP3 expression", "setting": "[1]; exogenous IL-2 added in combination with IFN-α", "value": "not effective"},
      {"measurement": "T cell expression of FoxP3", "setting": "[1]; temsirolimus 1.0 μM with IFN-α, relative to day 0 input T cells", "value": "reduced"},
      {"measurement": "day 13 T cell IFN-γ secretion", "setting": "[2]; [5]", "value": "highest"},
      {"measurement": "day 13 T cell TNF-α secretion", "setting": "[2]; [5]", "value": "highest"},
      {"measurement": "day 6 T cell cytokine secretion potential", "setting": "[2]; temsirolimus 0.1 μM", "value": "only partially reduced"},
      {"measurement": "day 6 T cell IFN-γ secretion", "setting": "[2]; [6]", "value": "very low levels"},
      {"measurement": "day 6 T cell TNF-α secretion", "setting": "[2]; [6]", "value": "very low levels"},
      {"measurement": "phospho-RAPTOR", "setting": "[3]; high-dose temsirolimus compared to low-dose temsirolimus or high-dose rapamycin", "value": "lower levels"},
      {"measurement": "autophagy marker p62", "setting": "[3]; pre-incubation, 1:3 beads, daclizumab, rapamycin 1 μM or temsirolimus 1.0 or 0.1", "value": "autophagy could be realized"}
    ]},
    {"molecule": "B1", "values": [
      {"measurement": "TBET expression", "setting": "[1]; 50 μg/ml daclizumab compared with 5 μg/ml", "value": "higher degree"},
      {"measurement": "FoxP3 expression", "setting": "[1]; IL-2 receptor blockade added to temsirolimus and IFN-α, 50 μg/ml more effective than 5 μg/ml", "value": "further reduced"},
      {"measurement": "FoxP3 expression", "setting": "[1]; [4]", "value": "not effective"}
    ]}
  ]
}
